Reference: patent US20260374739A1, “SMALL MOLECULAR WEIGHT CHEMICAL COMPOUND TO ANTAGONIZE EPH-EPHRIN TETRAMERIZATION AND INHIBIT BIDIRECTIONAL SIGNALING” (THE BOARD OF REGENTS OF THE UNIVERSITY OF TEXAS SYSTEM, priority 2022, published 2026)
Entries after “also recorded” stand apart in the source; their conditions may differ.

Experiments:
EphB1-EB2 = biological target: T1, EphB1-EB2 (Rattus norvegicus, UniProt P09759); test: ELISA EB2-His binding to immobilized EphB1-Fc; design: species or system mouse EB2; settings: 5 μM
T1 construct: mouse (Mus musculus) EB2-His ectodomain (Sino Biologicals), ELISA
T1 sequence (P09759 18-538): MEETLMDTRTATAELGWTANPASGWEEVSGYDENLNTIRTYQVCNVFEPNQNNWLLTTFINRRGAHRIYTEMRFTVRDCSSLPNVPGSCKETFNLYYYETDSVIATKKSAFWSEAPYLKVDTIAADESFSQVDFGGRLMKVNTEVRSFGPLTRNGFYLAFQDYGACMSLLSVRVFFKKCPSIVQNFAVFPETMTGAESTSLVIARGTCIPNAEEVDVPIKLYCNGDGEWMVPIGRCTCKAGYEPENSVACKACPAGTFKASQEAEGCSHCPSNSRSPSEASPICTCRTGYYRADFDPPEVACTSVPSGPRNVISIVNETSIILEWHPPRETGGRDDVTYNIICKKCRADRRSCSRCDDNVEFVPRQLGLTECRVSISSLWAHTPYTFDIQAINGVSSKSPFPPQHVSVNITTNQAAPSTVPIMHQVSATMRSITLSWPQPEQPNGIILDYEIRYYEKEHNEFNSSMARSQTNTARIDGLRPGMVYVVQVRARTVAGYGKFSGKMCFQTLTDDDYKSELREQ
Experimental: The 32 hits were then subjected to ELISA in which EphB1-Fc was first immobilized in 96 well Protein A plates, then soluble EB2-His was added with hit compound in triplicate, again at 5 μM. After 2 hr at RT to allow EB2-His binding to EphB1-Fc, wells were washed, incubated with nickel-activated horseradish peroxidase (HisProbe-HRP) to detect bound EB2-His protein, washed, and then incubated with ELISA Pico Chemiluminescent Substrate (both from Thermo-Fisher) before being read in a luminometer. A single-protein counter ELISA using the dual-tagged EphB2-His-Fc ectodomain protein was also run. […] For simplicity, we call this compound A20.

[1] = test system: DH neurons in the spinal cord; test: dorsal horn neuron activation (Trap2/Ai9) after CFA; format: in vivo, mouse; settings: listed as A20
Experimental: FIG. 65 depicts development of a quantitative fluorescent method to assess the activation of DH neurons in the spinal cord following a chronic, […]. The left hind paws of EphB1+/+ wild-type, EphB1+/− heterozygous, and EphB1−/− homozygous mutant mice that also contained the Trap2/CreERT2 driver and the Ai9/tdTomato reporter were injected once with CFA to induce inflammatory pain. Four hours later, mice were then injected IP with 4-hydroxy-tamoxifen (4-OHT, 40 mg/kg in sunflower seed oil) to activate Cre recombinase and permanently label with red fluorescence the neurons that were activated during the short window of time (~8 hr) until the 4-OHT is degraded. Fourteen days later, animals were perfused with 4% paraformaldehyde dissolved in PBS and then […] thick vibratome serial sections of the lumbar spinal cord were obtained, mounted, and viewed under fluorescence microscopy to identify red labeled neurons in the superficial dorsal horn of the spinal cords that were activated between ~4-12 hr after the CFA induction of inflammatory pain. Superficial red neurons were counted on the left (injured) and right (uninjured) side dorsal horns (boxed areas) from 8-12 serial sections along the span of lumbar cord of each animal. […]

[2] = test system: CFA-induced mechanical pain in mice; test: CFA inflammatory pain, mechanical; format: in vivo, mouse; settings: IP or PO 20 mg/kg
Experimental: The week prior to injection of CFA, adult mice (>10 weeks age, male or female) were first acclimated to the chambers used in pain assessments and then their left and right hind paws were subjected to thermal (heat) and mechanical (touch) pain measurements to obtain baseline data. Mechanical pain was assessed by placing mice on a wire grid and repeatably testing hind paws for their sensitivity to von Frey (VF) filaments of different stiffnesses with the mechanical withdrawal threshold for each mouse hind paw defined as the minimum gauge filament needed to elicit a reflex. Thermal pain was assessed by placing mice on a glass surface and subjecting their hind paws to an infrared heat source (Hargreaves device) that is connected to a timer to measure how long the animal takes to notice the heat and lift the paw. In these tests, both hind paws of mice were subjected to multiple measurements over a 2-3 hr period to (1) either narrow down the VF filament stiffness threshold to plot the touch pain or (2) to obtain six good thermal response measurements which are averaged to provide the data points for heat pain. […] A total of 12 mice were assessed in any one experiment. […]

With `Oc1c(Br)cc(CN2CCOCC2)c2cccnc12` [Compound 5, 7-bromo-5-(morpholinomethyl)quinolin-8-ol] the “ELISA signal” value (EphB1-EB2) was “reduced signal in the two-protein ELISA”, the “DH neuron activation” value [1] was “significantly fewer labeled neurons in the injured side; also recorded: dramatically reduced DH neuron activation” and the “mechanical pain” value [2] was “no increased sensitivity to the VF filaments on average”. The mechanical pain ratio ([2]; vehicle 2-3) was 1.
